Assay results from patent publication US8497298B2, “Use of benzo-fused heterocycle sulfamide derivatives for lowering lipids and lowering blood glucose levels” (Janssen Pharmaceutica NV, priority 2005, dated 2013).

Legend:
[1] = tested on: Zucker diabetic fatty (ZDF Gmi-fa/fa) rats; assay: Zucker Diabetic Fatty Rats Assay, Study B: basal glucose and Day 8 plasma parameters (Example 15); format: in vivo, rat; settings: for Basal glucose levels Day 4: Day 4, 2 hour fasted; for Basal glucose levels Day 4 / Basal glucose levels Day 6 / Basal glucose levels Day 0: in mg/dL; for Basal glucose levels Day 6: Day 6, 2 hour fasted; for Cholesterol / HDL / Insulin / Ratio (Triglyceride to HDL) / Triglyceride: Day 8 plasma; for Basal glucose levels Day 0: female ZDF rats
Description: (§1) Compound #8 was suspended in 0.5% Methocel using a hand held homogenizer to reduce the particle size and a magnetic stir bar and stir plate to keep the particles homogeneously suspended throughout the dosing period. 0.5% Hydroxypropyl Methylcellulose (Methocel) used as vehicle/control. Compound #8 was tested in both diabetic models of mouse and rat.
(§2) In this study, female Zucker diabetic fatty (ZDF Gmi-fa/fa) rats were selected for glucose lowering effect and oral glucose tolerance test (OGTT) studies. ZDF rats from (Charles River Laboratories, Wilmington, Mass.) at 7 weeks of age were individually housed and fed with C13004 diet (obtained from Research Diets, New Brunswick, N.J.). All of the rats were quarantined for a period of one week before transfer to the animal procedure room. A drop of blood (about 2 microliters) was collected by tail puncture and glucose concentration was detected with a glucometer (OneTouch UltraSmart, Lifescan, Milpitas, Calif.).
(§3) ZDF rats at 8 weeks of age were randomized into four treatment groups based on glucose values (first criterion, average of 150 mg/dL) and body weight (second criterion, average of 240 g). 32 rats were allocated into 4 treatment groups of 8 rats each. The four groups were then treated with 0.5% Methocel (vehicle), 10 mg/kg Compound #8, 30 mg/kg Compound #8, and 100 mg/kg Compound #8 in vehicle, respectively.
(§4) The rats were orally gavaged once daily (at 1500-1700 hour) with vehicle control (0.5% Methocel, pH7.4) or vehicle containing Compound #8 for 7 days. The dosing volume was 5 mL/kg body weight (1.2 mL for 250 gram rat). The rats were fed ad lib throughout the study.
Basal glucose levels after treatments were measured on Day 4 and Day 6 in 2 hour fasted rats with a glucometer (OneTouch UltraSmart, Lifescan, Milpitas, Calif.) after collecting two microliters of blood through tail puncture. Oral Glucose Tolerance Test (OGTT) was performed on Day 7 in 4 hour-fasted rats. Two hours after being dosed with Compound #8 or vehicle, the rats were gavaged with a 2g/kg of 50% glucose solution right after basal glucose levels measurement (0 minute). Blood glucose levels were then measured at 30, 60, 90 and 120 minutes through tail puncture.
On Day 8, rats were anaesthetized with sodium pentobarbital (1 ml/kg, intraperitoneal [i.p.] injection, SleepAway, Fort Dodge, Iowa) and blood was drawn via cardiac puncture using 3 mL syringe and collected into heparinized tubes. Plasma samples were obtained by centrifuging whole blood at 2000˜3000 g for 10˜20 minutes at 4° C. and stored at −20° C. for further measurement of insulin, HDL, total cholesterol and triglyceride.
Plasma insulin concentrations were measured by in both studies using the appropriate rat/mouse insulin enzyme-linked immunosorbent assay (ELISA) kit (EZRMI-13K, LINCO Research, St. Charles, Mo.). Blood samples were diluted 1:4 in charcoal stripped mouse serum that was included in the ELISA kit. The rest of the procedure followed the manufacturers instruction. The total fluorescence was detected using an Orion 1 Microplate Luminometer (Berthold Detection Systems, Pforzheim, Germany).
Plasma total cholesterol, high density lipoprotein (HDL), low density lipoprotein (LDL) and triglyceride concentrations were measured by using a Bayer ADVIA 1650 blood chemistry analyzer (Bayer HealthCare LLC, Diagnostic Division, Tarrytown, N.Y.). According to manufacturers protocol, cholesterol measurement was an enzymatic method utilizing cholesterol esterase and cholesterol oxidase conversion followed by a Trinder endpoint; Elimination/catalase method was used for HDL measurement; an enzymatic method with a Trinder endpoint was used for triglyceride measurement.
Data from this study was analyzed using the standard two-tailed Student's t-test and are expressed below as means and standard errors.

[2] = tested on: Zucker diabetic fatty (ZDF Gmi-fa/fa) rats; assay: Zucker Diabetic Fatty Rats Assay with 29 day wash-out (Example 16); format: in vivo, rat; settings: for Blood Glucose Level Day 0: Day 0 (baseline), ad lib fed; for Blood Glucose Level Day 36: then 29 days wash-out
Description: as §1
as §2, with “effect.” for “effect and oral glucose tolerance test (OGTT) studies.”
as §3, with “g). 13” for “g). 32”, “of 3” for “of 8”, “rats each for Compound #8 treated groups and 4 rats for the non-treated group.” for “rats each.”, “The three” for “The four”, “with” for “with 0.5% Methocel (vehicle),”, “in 0.5 methylcellulose,” for “in vehicle,”
as §4, with “study. The rats were then allowed 29 days of wash-out period, where no dosing was administered.” for “study.”
Basal glucose levels after treatments were measured on Day 0 (baseline) and Day 36 (after 7 days dosing and 29 days wash-out) in ad lib fed rats with a glucometer (OneTouch UltraSmart, Lifescan, Milpitas, Calif.) after collecting two microliters of blood through tail puncture.
Data from this study was analyzed using the standard two-tailed Student's t-test and are expressed below as means and standard errors, with results as listed in Table 15 below.

NS(=O)(=O)NC[C@H]1COc2cc(Cl)ccc2O1 [Compound #8, (2S)-(−)-N-(6-Chloro-2,3-dihydro-benzo[1,4]dioxin-2-ylmethyl)-sulfamide]
Basal glucose levels Day 4 ([1]; 10 mg/kg oral once daily): 148 ± 15 | Basal glucose levels Day 6 ([1]; 10 mg/kg oral once daily): 190 ± 28 | Cholesterol ([1]; 10 mg/kg): 142 ± 6 mg/dL | HDL ([1]; 10 mg/kg): 36 ± 1.0 mg/dL | Insulin ([1]; 10 mg/kg): 16 ± 1.0 ng/mL | Ratio (Triglyceride to HDL) ([1]; 10 mg/kg): 37 ± 3 | Triglyceride ([1]; 10 mg/kg): 1323 ± 124 mg/dL | Basal glucose levels Day 4 ([1]; 30 mg/kg oral once daily): 146 ± 9 | Basal glucose levels Day 6 ([1]; 30 mg/kg oral once daily): 151 ± 11 | Cholesterol ([1]; 30 mg/kg): 144 ± 11 mg/dL | HDL ([1]; 30 mg/kg): 36 ± 1.1 mg/dL | Insulin ([1]; 30 mg/kg): 14 ± 1.1 ng/mL | Ratio (Triglyceride to HDL) ([1]; 30 mg/kg): 39 ± 7 | Triglyceride ([1]; 30 mg/kg): 1383 ± 254 mg/dL | Basal glucose levels Day 4 ([1]; 100 mg/kg oral once daily): 125 ± 4 | Basal glucose levels Day 6 ([1]; 100 mg/kg oral once daily): 134 ± 5 | plasma insulin decreased ([1]; 100 mg/kg, Day 8): 32% | ratio of triglyceride to HDL reduced ([1]; 100 mg/kg, Day 8): 59% | Cholesterol ([1]; 100 mg/kg): 134 ± 7 mg/dL | HDL ([1]; 100 mg/kg): 41 ± 2.2 mg/dL | Insulin ([1]; 100 mg/kg): 8.8 ± 1.2 ng/mL | Ratio (Triglyceride to HDL) ([1]; 100 mg/kg): 19 ± 3 | Triglyceride ([1]; 100 mg/kg): 776 ± 119 mg/dL | food intake and weight loss ([1]; any of the groups (10, 30, 100 mg/kg)): No reduction in food intake reduction or weight loss | Basal glucose levels Day 0 ([1]; 10 mg/kg group): 153 ± 13 | Basal glucose levels Day 0 ([1]; 30 mg/kg group): 152 ± 11 | Basal glucose levels Day 0 ([1]; 100 mg/kg group): 147 ± 7 | Blood Glucose Level Day 0 ([2]; 10 mg/kg group): 222 ± 20 mg/dL | Blood Glucose Level Day 36 ([2]; 10 mg/kg oral once daily 7 days): 295 ± 81 mg/dL | Blood Glucose Level Day 0 ([2]; 30 mg/kg group): 229 ± 23 mg/dL | Blood Glucose Level Day 36 ([2]; 30 mg/kg oral once daily 7 days): 247 ± 86 mg/dL | Blood Glucose Level Day 0 ([2]; 100 mg/kg group): 228 ± 18 mg/dL | Blood Glucose Level Day 36 ([2]; 100 mg/kg oral once daily 7 days): 219 ± 39 mg/dL
